Measured values as given in PubChem BioAssay (NCI).
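Following 48 hours of exposure in 96-well plates, responses at five concentrations were used to interpolate endpoints linearly. TGI: total growth inhibition.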

How the values were obtained:
Assay in all cases: NCI-60 cell line screen, 48 h
SF-539 CNS = system: SF-539 CNS
HOP-62 NSCLC = system: HOP-62 NSCLC
SNB-75 CNS = system: SNB-75 CNS
RPMI-8226 leukemia = system: RPMI-8226 leukemia
SR leukemia = system: SR leukemia
HOP-92 NSCLC = system: HOP-92 NSCLC
SN12C renal = system: SN12C renal
U251 CNS = system: U251 CNS
MDA-MB-231 breast = system: MDA-MB-231 breast
OVCAR-3 ovarian = system: OVCAR-3 ovarian
HT29 colon = system: HT29 colon
SF-295 CNS = system: SF-295 CNS
MDA-MB-435 = system: MDA-MB-435
TK-10 renal = system: TK-10 renal
A549 NSCLC = system: A549 NSCLC
SK-MEL-5 melanoma = system: SK-MEL-5 melanoma
SK-MEL-28 melanoma = system: SK-MEL-28 melanoma
UO-31 renal = system: UO-31 renal
DU-145 prostate = system: DU-145 prostate
M14 melanoma = system: M14 melanoma
LOX IMVI melanoma = system: LOX IMVI melanoma
SNB-19 CNS = system: SNB-19 CNS
NCI-H23 lung = system: NCI-H23 lung
NCI-H226 lung = system: NCI-H226 lung
NCI-H522 lung = system: NCI-H522 lung
SK-OV-3 ovarian = system: SK-OV-3 ovarian
OVCAR-4 ovarian = system: OVCAR-4 ovarian
EKVX NSCLC = system: EKVX NSCLC
SW-620 colon = system: SW-620 colon
IGROV1 ovarian = system: IGROV1 ovarian
MDA-N = system: MDA-N
HS 578T breast = system: HS 578T breast
K-562 leukemia = system: K-562 leukemia
ACHN renal = system: ACHN renal
OVCAR-8 ovarian = system: OVCAR-8 ovarian
HCC-2998 colon = system: HCC-2998 colon
SK-MEL-2 melanoma = system: SK-MEL-2 melanoma
HCT-15 colon = system: HCT-15 colon
MCF7 breast = system: MCF7 breast
NCI-H460 lung = system: NCI-H460 lung
UACC-62 melanoma = system: UACC-62 melanoma
COLO 205 colon = system: COLO 205 colon
T-47D breast = system: T-47D breast
UACC-257 melanoma = system: UACC-257 melanoma
HCT-116 colon = system: HCT-116 colon
NCI/ADR-RES ovarian = system: NCI/ADR-RES ovarian
CCRF-CEM leukemia = system: CCRF-CEM leukemia
786-0 renal = system: 786-0 renal
MOLT-4 leukemia = system: MOLT-4 leukemia
PC-3 prostate = system: PC-3 prostate
A498 renal = system: A498 renal
KM12 colon = system: KM12 colon
SF-268 CNS = system: SF-268 CNS
OVCAR-5 ovarian = system: OVCAR-5 ovarian
MALME-3M melanoma = system: MALME-3M melanoma
RXF 393 renal = system: RXF 393 renal
CAKI-1 renal = system: CAKI-1 renal

`CCCCCNc1nonc1N` was tested. Which TGI (SF-539 CNS) did it give?
The TGI was greater than 100 µM.

What about the TGI (HOP-62 NSCLC) of the same compound?
The TGI was greater than 100 µM.

And the TGI (SNB-75 CNS)?
Its TGI is greater than 100 µM.

What about the TGI (RPMI-8226 leukemia) of the same compound?
The TGI was greater than 100 µM.

What about the TGI (SR leukemia) of the same compound?
The TGI was greater than 100 µM.

And the TGI (HOP-92 NSCLC)?
The TGI was greater than 100 µM.

What about the TGI (SN12C renal) of the same compound?
Its TGI is greater than 100 µM.

What about the TGI (U251 CNS) of the same compound?
Its TGI is greater than 100 µM.

And the TGI (MDA-MB-231 breast)?
The TGI was greater than 100 µM.

And the TGI (OVCAR-3 ovarian)?
Its TGI is greater than 100 µM.

What about the TGI (HT29 colon) of the same compound?
The TGI was greater than 100 µM.

And the TGI (SF-295 CNS)?
Its TGI is greater than 100 µM.

And the TGI (MDA-MB-435)?
The TGI was greater than 100 µM.

And the TGI (TK-10 renal)?
The TGI was greater than 100 µM.

And the TGI (A549 NSCLC)?
The TGI was greater than 100 µM.

And the TGI (SK-MEL-5 melanoma)?
Its TGI is greater than 100 µM.

And the TGI (SK-MEL-28 melanoma)?
The TGI was greater than 100 µM.

And the TGI (UO-31 renal)?
The TGI was greater than 100 µM.

What about the TGI (DU-145 prostate) of the same compound?
Its TGI is greater than 100 µM.

What about the TGI (M14 melanoma) of the same compound?
The TGI was greater than 100 µM.

And the TGI (LOX IMVI melanoma)?
Its TGI is greater than 100 µM.

What about the TGI (SNB-19 CNS) of the same compound?
The TGI was greater than 100 µM.

What about the TGI (NCI-H23 lung) of the same compound?
Its TGI is greater than 100 µM.

And the TGI (NCI-H226 lung)?
The TGI was greater than 100 µM.

And the TGI (NCI-H522 lung)?
The TGI was greater than 100 µM.

And the TGI (SK-OV-3 ovarian)?
Its TGI is greater than 100 µM.

What about the TGI (OVCAR-4 ovarian) of the same compound?
Its TGI is greater than 100 µM.

What about the TGI (EKVX NSCLC) of the same compound?
Its TGI is greater than 100 µM.

What about the TGI (SW-620 colon) of the same compound?
The TGI was greater than 100 µM.

And the TGI (IGROV1 ovarian)?
The TGI was greater than 100 µM.

And the TGI (MDA-N)?
The TGI was greater than 100 µM.

What about the TGI (HS 578T breast) of the same compound?
Its TGI is greater than 100 µM.

And the TGI (K-562 leukemia)?
The TGI was greater than 100 µM.

What about the TGI (ACHN renal) of the same compound?
Its TGI is greater than 100 µM.

And the TGI (OVCAR-8 ovarian)?
Its TGI is greater than 100 µM.

And the TGI (HCC-2998 colon)?
The TGI was greater than 100 µM.

And the TGI (SK-MEL-2 melanoma)?
The TGI was greater than 100 µM.

What about the TGI (HCT-15 colon) of the same compound?
The TGI was greater than 100 µM.

And the TGI (MCF7 breast)?
Its TGI is greater than 100 µM.

What about the TGI (NCI-H460 lung) of the same compound?
The TGI was greater than 100 µM.

And the TGI (UACC-62 melanoma)?
The TGI was greater than 100 µM.

And the TGI (COLO 205 colon)?
Its TGI is greater than 100 µM.

And the TGI (T-47D breast)?
The TGI was greater than 100 µM.

And the TGI (UACC-257 melanoma)?
Its TGI is greater than 100 µM.

What about the TGI (HCT-116 colon) of the same compound?
The TGI was greater than 100 µM.

What about the TGI (NCI/ADR-RES ovarian) of the same compound?
Its TGI is greater than 100 µM.

What about the TGI (CCRF-CEM leukemia) of the same compound?
The TGI was greater than 31.6 µM.

What about the TGI (786-0 renal) of the same compound?
Its TGI is greater than 100 µM.

What about the TGI (MOLT-4 leukemia) of the same compound?
Its TGI is greater than 100 µM.

What about the TGI (PC-3 prostate) of the same compound?
The TGI was greater than 100 µM.

What about the TGI (A498 renal) of the same compound?
Its TGI is greater than 100 µM.

And the TGI (KM12 colon)?
The TGI was greater than 100 µM.

And the TGI (SF-268 CNS)?
Its TGI is greater than 100 µM.

What about the TGI (OVCAR-5 ovarian) of the same compound?
The TGI was greater than 100 µM.

And the TGI (MALME-3M melanoma)?
The TGI was greater than 100 µM.

And the TGI (RXF 393 renal)?
Its TGI is greater than 100 µM.

What about the TGI (CAKI-1 renal) of the same compound?
Its TGI is greater than 100 µM.

What does the source list for `CC1(C)CC[C@]2(C)CC=C3[C@]4(C)CC[C@H]5C(C)(C)C(=O)CC[C@]5(C)[C@H]4CC[C@@]3(C)[C@H]2C1`?
TGI (SF-539 CNS): > 100 µM; TGI (HOP-62 NSCLC): > 100 µM; TGI (RPMI-8226 leukemia): > 100 µM; TGI (SR leukemia): > 100 µM; TGI (HOP-92 NSCLC): > 100 µM; TGI (SN12C renal): > 100 µM; TGI (U251 CNS): > 100 µM; TGI (MDA-MB-231 breast): > 100 µM; TGI (OVCAR-3 ovarian): > 100 µM; TGI (HT29 colon): > 100 µM; TGI (SF-295 CNS): > 100 µM; TGI (MDA-MB-435): > 100 µM; TGI (TK-10 renal): > 100 µM; TGI (A549 NSCLC): > 100 µM; TGI (SK-MEL-5 melanoma): > 100 µM; TGI (SK-MEL-28 melanoma): > 100 µM; TGI (UO-31 renal): > 100 µM; TGI (DU-145 prostate): > 100 µM; TGI (M14 melanoma): > 100 µM; TGI (LOX IMVI melanoma): > 100 µM; TGI (SNB-19 CNS): > 100 µM; TGI (NCI-H23 lung): > 100 µM; TGI (NCI-H226 lung): > 100 µM; TGI (NCI-H522 lung): > 100 µM; TGI (SK-OV-3 ovarian): > 100 µM; TGI (OVCAR-4 ovarian): > 100 µM; TGI (EKVX NSCLC): > 100 µM; TGI (SW-620 colon): > 100 µM; TGI (IGROV1 ovarian): > 100 µM; TGI (MDA-N): > 100 µM; TGI (HS 578T breast): > 100 µM; TGI (ACHN renal): > 100 µM; TGI (OVCAR-8 ovarian): > 100 µM; TGI (HCC-2998 colon): > 100 µM; TGI (SK-MEL-2 melanoma): > 100 µM; TGI (HCT-15 colon): > 100 µM; TGI (MCF7 breast): > 100 µM; TGI (UACC-62 melanoma): > 100 µM; TGI (COLO 205 colon): > 100 µM; TGI (T-47D breast): > 100 µM; TGI (UACC-257 melanoma): > 100 µM; TGI (HCT-116 colon): > 100 µM; TGI (NCI/ADR-RES ovarian): > 100 µM; TGI (CCRF-CEM leukemia): > 100 µM; TGI (786-0 renal): > 100 µM; TGI (MOLT-4 leukemia): > 100 µM; TGI (PC-3 prostate): > 100 µM; TGI (A498 renal): > 100 µM; TGI (KM12 colon): > 100 µM; TGI (SF-268 CNS): > 100 µM; TGI (OVCAR-5 ovarian): > 100 µM; TGI (MALME-3M melanoma): > 100 µM; TGI (RXF 393 renal): > 100 µM; TGI (CAKI-1 renal): > 100 µM
